Experimental findings from patent US12435092B2, “Substituted imidazo[1,2-A]quinazolines as inhibitors of PARG” (858 Therapeutics, Inc., priority 2022, dated 2025) are described below.

Each structure is given as a SMILES string. Some results are limits rather than exact numbers.

The target of this assay is T1, cellular PARG (Homo sapiens, UniProt Q86W56).
T1 construct: endogenous in cells; host or cells: HeLa
Nature of the assay: Nuclear PAR accumulation assay (immunofluorescence high-content imaging). Type of assay: cell-based. To be noted: HeLa cells, 1 hour compound treatment then MMS 50 μg/mL for an additional hour. As for the experimental part: Compound IC50 values for inhibition of cellular PARG were determined using an immunofluorescence high-content imaging assay for nuclear PAR accumulation. HeLa cells were plated at 15,000 cells/well in a 96-well plate the day before compound treatment and then treated with varying concentrations of test compound and incubated for 1 hour at 37° C.+5% CO2. Following test compound treatment, methylmethane sulfonate (MMS) was added to a final concentration of 50 μg/mL and the cells were incubated for an additional hour. Following treatment, the cells were fixed with ice cold 95% methanol and the plates sealed and placed at −20° C. for 15 minutes. The cells were then washed once with phosphate buffered saline (PBS) and permeabilized with 0.1% Triton-X 100 for 20 minutes at room temperature. The cells were again washed once with PBS and incubated with an anti-poly-ADP ribose (PAR) monoclonal antibody (Millipore Part #AM80 clone 10H) diluted 1:1,000 in 5% fetal bovine serum +0.1% Tween-20+PBS overnight at 4° C. The cells were then washed three times with PBS before incubation with a fluorescently conjugated goat anti-mouse antibody (Invitrogen A32723) diluted 1:500 in 5% FBS+0.1% Tween-20+PBS for 1 hour at room temperature. The cells were again washed three times with PBS and the nuclei labeled by incubating with 1 μg/mL DAPI (4′,6-diamidino-2-phenylindole). Nuclear PAR accumulation was evaluated using high-content fluorescence microscopy. Four fields for each well were acquired at 20× magnification resulting in at least 1,000 cells analyzed per well. Using high-content software (CellReporterXpress) the nuclei were detected and segmented using the DAPI channel and the fluorescence intensity of the PAR-Alexa 488 channel was quantified within the nuclei regions. Both the average intensity per nucleus and percent PAR positive cells were quantified. Percent PAR positive cells were identified by having greater anti-PAR labeling above the threshold set with vehicle DMSO treated control cells. Percent inhibition of PARG by test compounds was calculated by normalizing the data to the 0.1% DMSO and reference compound control values, which represent 0% and 100% inhibition of enzymatic activity, respectively. Concentration-response-curves and IC50 values were generated using four parameter logistic curve fit software.

T1 sequence (Q86W56 whole entry): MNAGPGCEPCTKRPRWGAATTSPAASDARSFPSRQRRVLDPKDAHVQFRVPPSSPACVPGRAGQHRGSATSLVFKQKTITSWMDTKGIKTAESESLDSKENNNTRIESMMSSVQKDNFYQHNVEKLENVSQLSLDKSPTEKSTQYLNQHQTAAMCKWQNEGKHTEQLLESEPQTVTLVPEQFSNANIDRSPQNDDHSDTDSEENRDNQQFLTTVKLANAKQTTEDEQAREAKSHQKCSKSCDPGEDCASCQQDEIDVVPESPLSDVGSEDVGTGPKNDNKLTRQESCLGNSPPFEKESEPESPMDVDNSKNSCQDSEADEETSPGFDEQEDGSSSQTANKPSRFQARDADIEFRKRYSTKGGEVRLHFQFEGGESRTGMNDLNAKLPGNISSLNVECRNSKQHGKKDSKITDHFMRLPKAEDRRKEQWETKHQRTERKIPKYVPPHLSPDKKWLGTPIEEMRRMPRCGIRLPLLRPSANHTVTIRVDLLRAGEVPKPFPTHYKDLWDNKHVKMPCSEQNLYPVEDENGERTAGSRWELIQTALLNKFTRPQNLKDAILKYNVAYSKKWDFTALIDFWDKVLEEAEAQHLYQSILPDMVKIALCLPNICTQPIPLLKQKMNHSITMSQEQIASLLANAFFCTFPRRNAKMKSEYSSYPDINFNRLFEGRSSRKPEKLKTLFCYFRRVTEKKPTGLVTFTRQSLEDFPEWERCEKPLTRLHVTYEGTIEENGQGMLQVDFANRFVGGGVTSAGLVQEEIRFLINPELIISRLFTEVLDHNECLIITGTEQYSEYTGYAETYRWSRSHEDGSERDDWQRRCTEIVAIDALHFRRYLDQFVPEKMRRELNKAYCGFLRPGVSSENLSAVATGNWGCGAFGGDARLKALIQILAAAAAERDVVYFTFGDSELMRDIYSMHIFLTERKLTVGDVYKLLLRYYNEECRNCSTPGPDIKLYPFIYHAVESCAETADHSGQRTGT

Regarding `CCN1C(=O)c2cc(S(=O)(=O)NC3(C)CC3)ccc2N2C1=NC[C@@H]2C1CC1` [Example 25, (S)-1-cyclopropyl-4-ethyl-N-(1-methylcyclopropyl)-5-oxo-1,2,4,5-tetrahydroimidazo[1,2-a]quinazoline-7-sulfonamide], the half-inhibitory concentration (IC50) was greater than 10000 nM. With `CCN1C(=O)c2cc(S(=O)(=O)NC3(C)CC3)ccc2N2C1=NC[C@H]2C1CC1` [Example 26, (R)-1-cyclopropyl-4-ethyl-N-(1-methylcyclopropyl)-5-oxo-1,2,4,5-tetrahydroimidazo[1,2-a]quinazoline-7-sulfonamide] the figure was 100 to 1000 nM; with `C#C[C@H]1CN=C2N(CC)C(=O)c3cc(S(=O)(=O)NC4(C)CC4)ccc3N21` [Example 27, (S)-4-ethyl-1-ethynyl-N-(1-methylcyclopropyl)-5-oxo-1,2,4,5-tetrahydroimidazo[1,2-a]quinazoline-7-sulfonamide], 1000 to 10000 nM; with `C#C[C@@H]1CN=C2N(CC)C(=O)c3cc(S(=O)(=O)NC4(C)CC4)ccc3N21` [Example 28, (R)-4-ethyl-1-ethynyl-N-(1-methylcyclopropyl)-5-oxo-1,2,4,5-tetrahydroimidazo[1,2-a]quinazoline-7-sulfonamide], 100 to 1000 nM.

Consider `CC[C@H]1CN=C2N(Cc3cnc(C)s3)C(=O)c3cc(S(=O)(=O)NC4(C)CC4)ccc3N21` [Example 29, (S)-1-ethyl-N-(1-methylcyclopropyl)-4-((2-methylthiazol-5-yl)methyl)-5-oxo-1,2,4,5-tetrahydroimidazo[1,2-a]quinazoline-7-sulfonamide], for which the IC50 was 1000 to 10000 nM. `CC[C@@H]1CN=C2N(Cc3cnc(C)s3)C(=O)c3cc(S(=O)(=O)NC4(C)CC4)ccc3N21` [Example 30, (R)-1-ethyl-N-(1-methylcyclopropyl)-4-((2-methylthiazol-5-yl)methyl)-5-oxo-1,2,4,5-tetrahydroimidazo[1,2-a]quinazoline-7-sulfonamide] returned an IC50 of no more than 100 nM. With `Cc1ncc(CN2C(=O)c3cc(S(=O)(=O)NC4(C)CC4)ccc3N3C2=NC[C@H]3C)s1` [Example 31, (R)-1-methyl-N-(1-methylcyclopropyl)-4-((2-methylthiazol-5-yl)methyl)-5-oxo-1,2,4,5-tetrahydroimidazo[1,2-a]quinazoline-7-sulfonamide] the figure was no more than 100 nM. With `Cc1cc(CN2C(=O)c3cc(S(=O)(=O)NC4(C)CC4)ccc3N3C2=NC[C@H]3C)on1` [Example 32, (R)-1-methyl-N-(1-methylcyclopropyl)-4-((3-methylisoxazol-5-yl)methyl)-5-oxo-1,2,4,5-tetrahydroimidazo[1,2-a]quinazoline-7-sulfonamide] the figure was no more than 100 nM; with `C#C[C@H]1CN=C2N(Cc3cnn(C)c3)C(=O)c3cc(S(=O)(=O)NC4(C)CC4)ccc3N21` [Example 33, (S)-1-ethynyl-4-((1-methyl-1H-pyrazol-4-yl)methyl)-N-(1-methylcyclopropyl)-5-oxo-1,2,4,5-tetrahydroimidazo[1,2-a]quinazoline-7-sulfonamide], 100 to 1000 nM.

`C#C[C@@H]1CN=C2N(Cc3cnn(C)c3)C(=O)c3cc(S(=O)(=O)NC4(C)CC4)ccc3N21` [Example 34, (R)-1-ethynyl-4-((1-methyl-1H-pyrazol-4-yl)methyl)-N-(1-methylcyclopropyl)-5-oxo-1,2,4,5-tetrahydroimidazo[1,2-a]quinazoline-7-sulfonamide] came in with an IC50 of no more than 100 nM. With `Cn1cc(CN2C(=O)c3cc(S(=O)(=O)NC4(C)CC4)ccc3N3C2=NC[C@H]3C2CC2)cn1` [Example 35, (R)-1-cyclopropyl-4-((1-methyl-1H-pyrazol-4-yl)methyl)-N-(1-methylcyclopropyl)-5-oxo-1,2,4,5-tetrahydroimidazo[1,2-a]quinazoline-7-sulfonamide], the IC50 was no more than 100 nM.

In turn, `Cn1cc(CN2C(=O)c3cc(S(=O)(=O)NC4(C)CC4)ccc3N3C2=NC[C@@H]3C2CC2)cn1` [Example 36, (S)-1-cyclopropyl-4-((1-methyl-1H-pyrazol-4-yl)methyl)-N-(1-methylcyclopropyl)-5-oxo-1,2,4,5-tetrahydroimidazo[1,2-a]quinazoline-7-sulfonamide] gave an IC50 of 100 to 1000 nM.

Broadly, the IC50 is the concentration that gives 50% inhibition. Low readings indicate greater potency in that assay, high ones weaker potency in that assay.
